From patent publication US11773140B2, “Gram-negative lysin-antimicrobial peptide (AMP) polypeptide constructs, lysins, isolated polynucleotides encoding same and uses thereof in human serum” (priority 2018, dated 2023)
Like-named read-outs stand apart in the source and are kept apart here.

What was measured:
Type in all cases: cell-based, Pseudomonas aeruginosa
[1] = tested on: carbapenem-resistant P. aeruginosa isolate PA22
Procedure: (§1) Such resensitization may be determined by combining the present lysins or lysin-AMP polypeptide constructs with an antibiotic in a checkerboard assay as described herein. Antibiotic-resistant bacteria, such as carbapenem-resistant P. aeruginosa, are added to the lysin or lysin-AMP polypeptide construct combination. […] See Clinical and Laboratory Standards Institute (CLSI), CLSI. […] M100 Performance Standards for Antimicrobial Susceptibility Testing; 29th Edition. Clinical and Laboratory Standards Institute, Wayne, Pa.
(§2) Up to seven carbapenem-resistant isolates were assessed. […] See Clinical and Laboratory Standards Institute (CLSI), CLSI. […] M100 Performance Standards for Antimicrobial Susceptibility Testing; 29th Edition. Clinical and Laboratory Standards Institute, Wayne, Pa.

[2] = tested on: carbapenem-resistant P. aeruginosa isolate PA21
Procedure: as §1, §2

[3] = tested on: carbapenem-resistant P. aeruginosa isolate PA20
Procedure: as §1, §2

[4] = tested on: carbapenem-resistant isolate WC-452
Procedure: as §1, §2

[5] = tested on: carbapenem-resistant P. aeruginosa isolate PA19
Procedure: as §1, §2

[6] = tested on: carbapenem-resistant P. aeruginosa isolate PA23
Procedure: as §1, §2

[7] = tested on: carbapenem-resistant P. aeruginosa isolate PA24
Procedure: as §1, §2

| Structure (SMILES) | carbapenem susceptibility category, Alone [1] | carbapenem MIC, Combination ([1]; in combination with GN121) | carbapenem MIC, Combination ([1]; in combination with GN123) | carbapenem susceptibility category, Combination ([1]; in combination with GN123) | carbapenem susceptibility category, Alone [2] | carbapenem MIC, Combination ([2]; in combination with GN121) | carbapenem MIC, Combination ([2]; in combination with GN123) | carbapenem susceptibility category, Combination ([2]; in combination with GN123) | carbapenem susceptibility category, Alone [3] | carbapenem MIC, Combination ([3]; in combination with GN121) | carbapenem MIC, Combination ([3]; in combination with GN123) | carbapenem susceptibility category, Combination ([3]; in combination with GN123) | carbapenem susceptibility category, Alone [4] | carbapenem MIC, Combination ([4]; in combination with GN123) | carbapenem susceptibility category, Combination ([4]; in combination with GN123) | carbapenem susceptibility category, Alone [5] | carbapenem MIC, Combination ([5]; in combination with GN121) | carbapenem MIC, Combination ([5]; in combination with GN123) | carbapenem susceptibility category, Combination ([5]; in combination with GN123) | carbapenem susceptibility category, Alone [6] | other results |
| --- | --- | --- | --- | --- | --- | --- | --- | --- | --- | --- | --- | --- | --- | --- | --- | --- | --- | --- | --- | --- | --- |
| C[C@@H](O)[C@H]1C(=O)N2C(C(=O)O)=C(S[C@@H]3CN[C@H](C(=O)N(C)C)C3)[C@H](C)[C@H]12 [MEROPENEM, meropenem] | R ((R) = resistant) | 1 µg/mL | 1 µg/mL | S ((S) = sensitive) | R ((R) = resistant) | 2 µg/mL | 1 µg/mL | S ((S) = sensitive) | R ((R) = resistant) | 1 µg/mL | 0.5 µg/mL | S ((S) = sensitive) | R ((R) = resistant) | 1 µg/mL | S ((S) = sensitive) | R ((R) = resistant) | 1 µg/mL | 0.5 µg/mL | S ((S) = sensitive) | R ((R) = resistant) | carbapenem MIC, Combination ([4]; in combination with GN121): 1 µg/mL; carbapenem MIC, Combination ([6]; in combination with GN121): 2 µg/mL; carbapenem MIC, Combination ([6]; in combination with GN123): 0.5 µg/mL; carbapenem susceptibility category, Combination ([6]; in combination with GN123): S ((S) = sensitive); carbapenem susceptibility category, Alone [7]: R ((R) = resistant); carbapenem MIC, Combination ([7]; in combination with GN121): 1 µg/mL; carbapenem MIC, Combination ([7]; in combination with GN123): 2 µg/mL; carbapenem susceptibility category, Combination ([7]; in combination with GN123): S ((S) = sensitive) |
| C[C@@H](O)[C@H]1C(=O)N2C(C(=O)O)=C(SCCN=CN)C[C@H]12 [imipenem] | R ((R) = resistant) | 2 µg/mL | 2 µg/mL | S ((S) = sensitive) | R ((R) = resistant) | 1 µg/mL | 0.5 µg/mL | S ((S) = sensitive) | R ((R) = resistant) | 0.5 µg/mL | 1 µg/mL | S ((S) = sensitive) | R ((R) = resistant) | 1 µg/mL | S ((S) = sensitive) | R ((R) = resistant) | 1 µg/mL | 0.5 µg/mL | S ((S) = sensitive) | R ((R) = resistant) | carbapenem susceptibility category, Combination ([1]; in combination with GN121): S ((S) = sensitive); carbapenem susceptibility category, Combination ([2]; in combination with GN121): S ((S) = sensitive); carbapenem susceptibility category, Combination ([3]; in combination with GN121): S ((S) = sensitive); carbapenem susceptibility category, Combination ([5]; in combination with GN121): S ((S) = sensitive); MIC, Alone ([6]; agent alone (carbapenem or lysin)): 16 µg/mL; carbapenem susceptibility category, Combination ([6]; in combination with GN121): S ((S) = sensitive); carbapenem MIC, Combination ([6]; in combination with GN123): 0.25 µg/mL; carbapenem susceptibility category, Combination ([6]; in combination with GN123): S ((S) = sensitive); carbapenem susceptibility category, Alone [7]: R ((R) = resistant); carbapenem MIC, Combination ([7]; in combination with GN121): 1 µg/mL; carbapenem susceptibility category, Combination ([7]; in combination with GN121): S ((S) = sensitive); carbapenem MIC, Combination ([7]; in combination with GN123): 2 µg/mL; carbapenem susceptibility category, Combination ([7]; in combination with GN123): S ((S) = sensitive) |
